Reference: patent US20250230193A1, “CYCLIC COMPOUND HAVING SELECTIVE KRAS INHIBITORY EFFECT ON HRAS AND NRAS” (CHUGAI SEIYAKU KABUSHIKI KAISHA, priority 2022, published 2025)
Where a SMILES comes first, the peptide text is derived from it. Bridges are numbered along the chain shown (N, C = ends). [ ]: non-standard residue; d: D form. The star is where a group is joined. hPhe(3-Cl-4-CF3) = N[C@@H](CCc1ccc(C(F)(F)F)c(Cl)c1)C(=O)O; NPrPhe(4-CF3) = CCCN[C@@H](Cc1ccc(C(F)(F)F)cc1)C(=O)O; NEtPhe(4-Me) = CCN[C@@H](Cc1ccc(C)cc1)C(=O)O; Morpholine(3S-CO) = O=C(O)[C@@H]1COCCN1; NMeGly(cPent) = CN[C@H](C(=O)O)C1CCCC1; NMeD = CN[C@@H](CC(=O)O)C(=O)O; NMeL = CN[C@@H](CC(C)C)C(=O)O; Morpholide = C1CN(*)CCO1; NMeA = CN[C@@H](C)C(=O)O; Ac5c = NC1(C(=O)O)CCCC1; Aze = O=C(O)[C@@H]1CCN1; Sar = CNCC(=O)O

Assays:
[1] = target: GDP-bound NRAS wild-type protein (Homo sapiens, UniProt P01111); test: Binding to NRAS by surface plasmon resonance (SPR), Single Cycle Kinetics; conditions: SPR
Sequence of GDP-bound NRAS wild-type protein (P01111 whole entry): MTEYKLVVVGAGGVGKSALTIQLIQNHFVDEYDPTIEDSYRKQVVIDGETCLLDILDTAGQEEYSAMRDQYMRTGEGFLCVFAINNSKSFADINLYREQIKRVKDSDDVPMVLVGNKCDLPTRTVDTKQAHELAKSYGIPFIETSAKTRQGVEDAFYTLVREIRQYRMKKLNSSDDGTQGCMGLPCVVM

[2] = target: GDP-bound HRAS wild-type protein (Homo sapiens, UniProt P01112); test: Binding to HRAS by surface plasmon resonance (SPR), Single Cycle Kinetics; conditions: SPR
Sequence of GDP-bound HRAS wild-type protein (P01112 whole entry): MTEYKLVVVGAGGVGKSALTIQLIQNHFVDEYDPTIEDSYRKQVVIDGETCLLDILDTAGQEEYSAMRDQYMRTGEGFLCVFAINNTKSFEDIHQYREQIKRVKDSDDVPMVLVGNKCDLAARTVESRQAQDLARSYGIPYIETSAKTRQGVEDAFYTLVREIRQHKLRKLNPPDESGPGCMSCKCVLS

[3] = KD ratio, GDP-bound NRAS wild-type vs GDP-bound KRAS wild-type
[4] = KD ratio, GDP-bound HRAS wild-type vs GDP-bound KRAS wild-type

CCO[C@@H]1C[C@H]2C(=O)NC3(CCC3)C(=O)N(C)[C@@H](C3CCCC3)C(=O)N(C)[C@H](C(=O)N(C)C)CC(=O)N(C)[C@@H](C)C(=O)N[C@@H]([C@H](C)CC)C(=O)N(C)CC(=O)N(C)[C@H]3CCCCN(C3=O)[C@@H](Cc3ccc(C(F)(F)F)cc3)C(=O)N(C)CC(=O)N[C@@H](CCc3cc(F)c(C(F)(F)F)c(F)c3)C(=O)N2C1 [PP0730]
NRAS/KRAS (ratio of KD value with respect to GDP-bound NRAS wild-type protein to KD value with respect to KRAS) ([1]; KD ratio NRAS/KRAS): C (A compound having a KD ratio of 0.1 or more and less than 3 is denoted as C) | HRAS/KRAS (ratio of KD value with respect to GDP-bound HRAS wild-type protein to KD value with respect to KRAS) ([2]; KD ratio HRAS/KRAS): C (A compound having a KD ratio of 0.1 or more and less than 3 is denoted as C)

CCO[C@@H]1C[C@H]2C(=O)NC3(CC(C)(C)C3)C(=O)N(C)[C@@H](C3CCCC3)C(=O)N(CC)[C@H](C(=O)N(C)C)CC(=O)N(C)[C@@H](CC)C(=O)N[C@@H]([C@@H](C)CC)C(=O)N(C)CC(=O)N(C)[C@H]3C/C=C\CCN(C3=O)[C@@H](Cc3ccc(C(F)(F)F)cc3)C(=O)N(C)CC(=O)N[C@@H](CCc3cc(F)c(C(F)(F)F)c(F)c3)C(=O)N2C1 [PP1768]
NRAS/KRAS (ratio of KD value for NRAS to KD value for KRAS) [1, 3]: A (a compound having 10 or more and less than 20 is denoted as A) | HRAS/KRAS (ratio of KD value for HRAS to KD value for KRAS) [2, 4]: A (a compound having 10 or more and less than 20 is denoted as A)

CCO[C@@H]1C[C@H]2C(=O)NC3(CCC3)C(=O)N(C)[C@@H](C3CCCC3)C(=O)N(C)[C@H](C(=O)N3CCOCC3)CC(=O)N(C)[C@@H](CC)C(=O)N[C@@H]([C@@H](C)CC)C(=O)N(C)CC(=O)N(C)[C@H]3CC/C=C(/C)CN(C3=O)[C@@H](Cc3ccc(C(F)(F)F)cc3)C(=O)N(C)CC(=O)N[C@@H](CCc3cc(F)c(C(F)(F)F)c(F)c3)C(=O)N2C1 [PP1335]
NRAS/KRAS (ratio of KD value for GDP-bound NRAS wild-type protein to KD value for KRAS) ([1]; KD ratio class): B (a compound having 3 or more and less than 10 is denoted as B) | HRAS/KRAS (ratio of KD value for GDP-bound HRAS wild-type protein to KD value for KRAS) ([2]; KD ratio class): B (a compound having 3 or more and less than 10 is denoted as B)

CC[C@H](C)[C@@H]1NC(=O)[C@H](CC(C)C)N(C)C(=O)C[C@@H](C(=O)N2CCOCC2)N(C)C(=O)[C@H](CC(C)C)N(C)C(=O)C2(CCCC2)NC(=O)[C@@H]2CCCN2C(=O)[C@H](CCc2ccc(C(F)(F)F)c(Cl)c2)NC(=O)CN(C)C(=O)[C@H](Cc2ccc(C)cc2)N(CC)C(=O)[C@@H]2CCN2C(=O)[C@H](C)N(C)C1=O [PP0016] ([NMeL]I[NMeA][Aze][NEtPhe(4-Me)][Sar][hPhe(3-Cl-4-CF3)]P[Ac5c][NMeL][NMeD]-Morpholide; lactam N-11)
NRAS/KRAS (ratio of KD for GDP-bound NRAS wild-type to KD for KRAS) ([1]; KD ratio NRAS/KRAS): C (A compound having a KD ratio of 0.1 or more and less than 3 is denoted as C) | HRAS/KRAS (ratio of KD for GDP-bound HRAS wild-type to KD for KRAS) ([2]; KD ratio HRAS/KRAS): C (A compound having a KD ratio of 0.1 or more and less than 3 is denoted as C)

CCO[C@@H]1C[C@H]2C(=O)NC3(CCCC3)C(=O)N(C)[C@@H](C3CCCC3)C(=O)N(C)[C@H](C(=O)N(C)C)CC(=O)N(C)[C@@H](CC)C(=O)N[C@@H]([C@@H](C)CC)C(=O)N(C)CC(=O)N(C)[C@H]3C[C@@H](C)CCN(C3=O)[C@@H](Cc3ccc(C(F)(F)F)cc3)C(=O)N(C)CC(=O)N[C@@H](CCc3cc(F)c(C(F)(F)F)c(F)c3)C(=O)N2C1 [PP1022]
NRAS/KRAS (ratio of KD value with respect to NRAS to KD value with respect to KRAS) [1, 3]: C (A compound having a KD ratio of 0.1 or more and less than 3 is denoted as C) | HRAS/KRAS (ratio of KD value with respect to HRAS to KD value with respect to KRAS) [2, 4]: B (a compound having 3 or more and less than 10 is denoted as B)

CCCOC[C@H]1C(=O)N[C@@H]([C@@H](C)CC)C(=O)N(C)CC(=O)N(C)[C@H]2C/C=C\CCN(C2=O)[C@@H](Cc2ccc(C(F)(F)F)cc2)C(=O)N(C)CC(=O)N[C@@H](CCc2ccc(C(F)(F)F)c(OC)c2)C(=O)N2C[C@@H](C)C[C@H]2C(=O)NC2(CCC2)C(=O)N(C)[C@@H](C2CCCC2)C(=O)N(C)[C@H](C(=O)N(C)CC)CC(=O)N1C [PP2027]
NRAS/KRAS (ratio of KD value for NRAS to KD value for KRAS) [1, 3]: A (a compound having 10 or more and less than 20 is denoted as A) | HRAS/KRAS (ratio of KD value for HRAS to KD value for KRAS) [2, 4]: B (a compound having 3 or more and less than 10 is denoted as B)

CCCN1C(=O)CN(C)C(=O)[C@@H]2CCN2C(=O)[C@H]([C@@H](C)CC)NC(=O)[C@H](CC(C)C)N(C)C(=O)C[C@@H](C(=O)N2CCOCC2)N(C)C(=O)[C@H](C2CCCC2)N(C)C(=O)C2(CCCC2)NC(=O)[C@@H]2COCCN2C(=O)[C@H](CCc2ccc(C(F)(F)F)c(Cl)c2)NC(=O)CN(C)C(=O)[C@@H]1Cc1ccc(C(F)(F)F)cc1 [PP0313] ([NMeL]I[Aze][Sar][NPrPhe(4-CF3)][Sar][hPhe(3-Cl-4-CF3)][Morpholine(3S-CO)][Ac5c][NMeGly(cPent)][NMeD]-Morpholide; lactam N-11)
NRAS/KRAS (ratio of KD for GDP-bound NRAS wild-type to KD for KRAS) ([1]; KD ratio NRAS/KRAS): B (a compound having 3 or more and less than 10 is denoted as B) | HRAS/KRAS (ratio of KD for GDP-bound HRAS wild-type to KD for KRAS) ([2]; KD ratio HRAS/KRAS): C (A compound having a KD ratio of 0.1 or more and less than 3 is denoted as C)
